Measurements published in BigSolDB 2.1.

Cc1ccc(-c2ncc(Cl)cc2-c2ccc(S(C)(=O)=O)cc2)cn1
solubility (mole fraction)
Settings | 293.2 K | 298.2 K | 303.2 K | 308.2 K | 313.2 K
in 1,4-butanediol | 0.0605 | 0.0723 | 0.0873 | 0.104 | 0.124
in 1,4-dioxane | 0.0445 | 0.073 | 0.111 | 0.173 | 0.265
in DMAc | 0.0481 | 0.0811 | 0.141 | 0.236 | 0.387
in DMF | 0.0369 | 0.069 | 0.122 | 0.215 | 0.374
in DMSO | 0.0292 | 0.0605 | 0.126 | 0.253 | 0.495
in NMP | 0.0658 | 0.108 | 0.169 | 0.265 | 0.411
in ethanol | 0.0337 | 0.0537 | 0.0807 | 0.121 | 0.182
in ethylene glycol | 0.113 | 0.119 | 0.129 | 0.139 | 0.153
in formamide | 0.0586 | 0.113 | 0.225 | 0.425 | 0.779
in glycerin | 0.0558 | 0.0566 | 0.0577 | 0.0593 | 0.0625
in isopropanol | 0.0282 | 0.0452 | 0.0668 | 0.1 | 0.149
in methanol | 0.0241 | 0.0379 | 0.0561 | 0.0843 | 0.125
in n-propanol | 0.0505 | 0.0788 | 0.111 | 0.164 | 0.238
in propylene glycol | 0.0472 | 0.0605 | 0.0754 | 0.0942 | 0.117
in water | 1.36e-05 | 1.58e-05 | 1.86e-05 | 2.12e-05 | 2.44e-05

Settings | solubility (mole fraction)
in PEG-200, 293.2 K | 0.116
in PEG-200, 298.2 K | 0.135
in PEG-200, 303.2 K | 0.156
in PEG-200, 308.2 K | 0.176
in PEG-200, 313.2 K | 0.201
in PEG-400, 293.2 K | 0.211
in PEG-400, 298.2 K | 0.238
in PEG-400, 303.2 K | 0.275
in PEG-400, 308.2 K | 0.311
in PEG-400, 313.2 K | 0.351
in PEG-600, 293.2 K | 0.329
in PEG-600, 298.2 K | 0.354
in PEG-600, 303.2 K | 0.389
in PEG-600, 308.2 K | 0.422
in PEG-600, 313.2 K | 0.456
